Test results published in patent publication US5496697A, “Methods and apparatus for detecting the effect of cell affecting agents on living cells” (priority 1993, dated 1996).

What was measured:
[1] = target: T1, rat M1 muscarinic receptor (Rattus norvegicus, UniProt P08482); assay: metabolic rate of M1C-2 cells (B82 cells transfected with rat M1 muscarinic receptor); conditions: atropine alone, FIG. 28
T1 sequence (P08482 1-460): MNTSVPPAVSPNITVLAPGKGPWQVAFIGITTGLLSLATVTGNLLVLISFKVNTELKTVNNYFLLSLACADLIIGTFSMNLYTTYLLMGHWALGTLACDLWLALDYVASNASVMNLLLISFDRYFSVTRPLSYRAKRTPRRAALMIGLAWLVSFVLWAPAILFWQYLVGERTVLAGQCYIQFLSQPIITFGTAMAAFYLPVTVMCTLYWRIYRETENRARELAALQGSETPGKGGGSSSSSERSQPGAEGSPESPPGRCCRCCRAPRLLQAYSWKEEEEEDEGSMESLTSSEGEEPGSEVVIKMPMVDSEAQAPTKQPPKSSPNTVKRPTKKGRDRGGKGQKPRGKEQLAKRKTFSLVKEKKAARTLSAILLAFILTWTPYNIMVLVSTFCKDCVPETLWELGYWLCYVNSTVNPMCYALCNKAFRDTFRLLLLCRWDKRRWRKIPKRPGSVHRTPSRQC

MDCK cells = assay: metabolic rate of MDCK cells exposed to MgCl; type: cell-based, canine; conditions: 10 mM MgCl
L cells [2] = assay: cells; conditions: Mus musculus, 8 min, read-out: peak metabolic activity
L cells [3] = system: L cells
[4] = system: normal human keratinocytes; assay: metabolic rate of EGF-starved normal human keratinocytes; type: cell-based
Method: Normal human keratinocytes require epidermal growth factor (EGF) for proliferation without differentiation. Keratinocytes (from Clonetics, Inc.) were cultured in the absence of EGF for a period of 24 hours prior to the experiment. For the experiment, the keratinocytes were assembled into four flow chambers and the alternating stop-flow sequence was initiated with medium containing no EGF. At the time indicated by the arrow in FIG. 43, the syringes containing medium were changed on all four flow chambers. The second medium contained 5 ng/ml mouse EGF, or 1.25 μg/ml of a neutralizing rabbit anti-mouse-EGF polyclonal IgC, or both. A control with no EGF or IgC was also run. […] Addition of the anti-EGF antibody alone had no effect.
In a separate experiment, the growth medium for the normal human epidermal keratinocytes contained 10 ng/mL murine EGF, a substance found to be mitogenic for keratinocytes. […] It does show the same rising baseline, which probably indicates some combination of cell proliferation and adaptation to the environmental conditions in the flow chamber.
Stimulation of acidification rate was observable down to 0.1 ng/mL EGF. In a control experiment, the stimulation was abolished by a monoclonal antibody to EGF that is known to block receptor binding.

[5] = system: mouse and human fibroblasts; conditions: previously reported; cited from earlier work
[6] = system: vesicular stomatitis virus (VSV); type: cell-based; conditions: VSV-infected L cells, FIGS. 36-39

CN1[C@@H]2CC[C@H]1C[C@@H](OC(=O)C(CO)c1ccccc1)C2 (some centres unmarked) [Atropine]
effect on cells alone [1]: no significant effect

[Cl-].[Cl-].[Mg+2] [MgCl, magnesium chloride]
increase in metabolic rate vs. medium only (MDCK cells): 40-46%

CC(C)[C@@H]1NC(=O)[C@H](C)OC(=O)[C@@H](C(C)C)NC(=O)[C@@H](C(C)C)OC(=O)[C@H](C(C)C)NC(=O)[C@H](C)OC(=O)[C@@H](C(C)C)NC(=O)[C@@H](C(C)C)OC(=O)[C@H](C(C)C)NC(=O)[C@H](C)OC(=O)[C@@H](C(C)C)NC(=O)[C@@H](C(C)C)OC1=O [valinomycin]
fold induction at 100 µM (L cells [2]): ~2.4
peak metabolic rate relative to the initial rate (L cells [3]): more than double the initial rate
time of return of metabolic activity approximately to the initial value (L cells [3]): ≤ 20 min
time to peak of metabolic activity (L cells [3]): four

EGF: epidermal growth factor (mouse EGF) (NSYPGCPSSYDGYCLNGGVCMHIESLDSYTCNCVIGYSGDRCQTRDLRWWELR; Epidermal growth factor; UniProt P01132 977-1029, looked up)
metabolic response of keratinocytes to EGF ([4]; 5 ng/ml mouse EGF, FIG. 43): metabolic burst
metabolic rate at the peak ([4]; 50 ng/mL EGF, FIG. 44): nearly doubled
time from peak to decay to a steadily rising baseline ([4]; 50 ng/mL EGF, FIG. 44): 15 min
time to peak of response ([4]; 50 ng/mL EGF, FIG. 44): ~ 15 min
time to rise in metabolic rate ([4]; 50 ng/mL EGF, FIG. 44): ≤ 5 min
lowest concentration with observable stimulation of acidification rate ([4]; EGF): 0.1 ng/mL
effect on glycolytic rate [5]: rapid increase in glycolytic rate

NC(=O)c1ncn([C@@H]2O[C@H](CO)[C@@H](O)[C@H]2O)n1 [ribavirin]
effect on VSV-induced change of host cell metabolism [6]: inhibition
